Results on 22 compounds are retold here after patent US20140120087A1, “TRIAZOLOPYRIDINES” (BAYER INTELLECTUAL PROPERTY GMBH, priority 2011, published 2014).

Assay [1] has as its target T1, Mps-1 kinase (Homo sapiens, UniProt P33981).
T1 sequence (P33981 1-857): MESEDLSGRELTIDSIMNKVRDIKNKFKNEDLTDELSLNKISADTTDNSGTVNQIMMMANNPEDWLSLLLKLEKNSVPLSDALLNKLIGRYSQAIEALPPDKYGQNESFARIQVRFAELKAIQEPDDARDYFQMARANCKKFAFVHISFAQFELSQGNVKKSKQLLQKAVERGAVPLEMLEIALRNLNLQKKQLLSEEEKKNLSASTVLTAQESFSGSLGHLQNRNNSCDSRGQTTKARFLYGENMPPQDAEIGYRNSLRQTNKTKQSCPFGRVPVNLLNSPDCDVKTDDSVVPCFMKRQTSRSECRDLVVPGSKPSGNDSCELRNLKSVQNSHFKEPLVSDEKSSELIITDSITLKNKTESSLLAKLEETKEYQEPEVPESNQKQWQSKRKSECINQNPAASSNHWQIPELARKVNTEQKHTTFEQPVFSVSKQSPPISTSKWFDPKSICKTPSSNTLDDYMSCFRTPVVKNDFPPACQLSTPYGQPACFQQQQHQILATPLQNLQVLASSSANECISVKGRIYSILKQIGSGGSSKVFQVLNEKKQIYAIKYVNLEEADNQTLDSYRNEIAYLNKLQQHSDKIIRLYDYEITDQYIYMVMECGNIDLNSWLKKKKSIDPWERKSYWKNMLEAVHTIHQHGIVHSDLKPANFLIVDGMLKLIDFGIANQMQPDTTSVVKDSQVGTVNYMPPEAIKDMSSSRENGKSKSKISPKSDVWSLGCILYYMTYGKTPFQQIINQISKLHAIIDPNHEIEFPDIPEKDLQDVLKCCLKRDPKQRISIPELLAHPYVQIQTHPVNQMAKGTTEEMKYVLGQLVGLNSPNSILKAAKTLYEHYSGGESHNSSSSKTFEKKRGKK
Nature of the assay: Mps-1 kinase assay with 10 μM ATP (TR-FRET).

The target in assay [2] is T1, Mps-1 kinase. Briefly: Mps-1 kinase assay with 2 mM ATP (TR-FRET).

Where only a bound is given, the exact number is not on record here.

Turning to `CCS(=O)(=O)c1ccc(Nc2nc3ccc(-c4ccc(C(=O)NCc5ccc(F)cc5)cc4)cn3n2)c(OC(F)F)c1` [Example 12.61, 4-(2-{[2-(difluoromethoxy)-4-(ethylsulfonyl)phenyl]-amino}[1,2,4]triazolo[1,5-a]pyridin-6-yl)-N-(4-fluorobenzyl)benzamide], the values for the concentration for half-maximal inhibition (IC50) against Mps-1 kinase [1] and against Mps-1 kinase [2] were not above 1 nM and 6.1 nM, respectively.
In the case of `COc1cc(C(=O)NCCN(C)C)ccc1Nc1nc2ccc(-c3ccc(C(=O)NCc4ccc(F)cc4)cc3)cn2n1` [Example 12.48, N-[2-(dimethylamino)ethyl]-4-[(6-{4-[(4-fluorobenzyl)-carbamoyl]phenyl}[1,2,4]triazolo [1,5-a]pyridin-2-yl)amino]-3-methoxy-benzamide], the IC50 at Mps-1 kinase [1] was not above 1 nM; against Mps-1 kinase [2], 1.3 nM.
On to `CCNC(=O)c1ccc(Nc2nc3ccc(-c4ccc(C(=O)NCc5ccc(F)cc5)cc4)cn3n2)c(C)c1` [Example 12.64, N-ethyl-4-[(6-{4-[(4-fluoro-benzyl)carbamoyl]phenyl}-[1,2,4]triazolo[1,5-a]pyridin-2-yl)amino]-3-methyl-benzamide], for which the results for the IC50 at Mps-1 kinase [1] and against Mps-1 kinase [2] were not above 1 nM and 1.6 nM, respectively.
For the compound `CC(C)(CO)NC(=O)c1ccc(Nc2nc3ccc(-c4ccc(NC(=O)Cc5ccc(F)cc5)cc4)cn3n2)c(OCC(F)(F)F)c1` [Example 12.22, 4-{[6-(4-{[(4-fluorophenyl)-acetyl]amino}phenyl)[1,2,4]triazolo[1,5-a]pyridin-2-yl]amino}-N-(1-hydroxy-2-methylpropan-2-yl)-3-(2,2,2-trifluoroethoxy)benzamide], the IC50 against Mps-1 kinase [1] and on Mps-1 kinase [2] was not above 1 nM each time.
Regarding `COc1cc(C(=O)N(C)CC(F)(F)F)ccc1Nc1nc2ccc(-c3ccc(NC(=O)Cc4ccc(F)cc4)cc3)cn2n1` [Example 12.09, 4-{[6-(4-{[(4-fluorophenyl)-acetyl]amino}phenyl)[1,2,4]triazolo[1,5-a]pyridin-2-yl]amino}-3-methoxy-N-methyl-N-(2,2,2-trifluoro-ethyl)benzamide], the IC50 was not above 1 nM on Mps-1 kinase [1] and 2.5 nM at Mps-1 kinase [2].
With `CCN(C)C(=O)c1ccc(Nc2nc3ccc(-c4ccc(NC(=O)Cc5ccc(F)cc5)cc4)cn3n2)c(OC)c1` [Example 12.06, N-ethyl-4-{[6-(4-{[(4-fluorophenyl)acetyl]amino}-phenyl)[1,2,4]triazolo[1,5-a]pyridin-2-yl]amino}-3-methoxy-N-methyl-benzamide], the IC50 on Mps-1 kinase [1] and against Mps-1 kinase [2] was not above 1 nM throughout.
Regarding `CS(=O)(=O)c1ccc(Nc2nc3ccc(-c4ccc(NC(=O)Cc5ccc(F)cc5)cc4)cn3n2)c(F)c1` [Example 12.39, N-[4-(2-{[2-fluoro-4-(methylsulfonyl)phenyl]-amino}[1,2,4]triazolo[1,5-a]pyridin-6-yl)phenyl]-2-(4-fluorophenyl)acetamide], the IC50 against Mps-1 kinase [1] is not above 1 nM; against Mps-1 kinase [2] it was 16 nM.
In the same order, the values of `COCCNC(=O)c1ccc(Nc2nc3ccc(-c4ccc(C(=O)NCc5ccc(F)cc5)cc4)cn3n2)c(OC)c1` [Example 12.44, 4-[(6-{4-[(4-fluorobenzyl)-carbamoyl]phenyl}[1,2,4]triazolo [1,5-a]pyridin-2-yl)-amino]-3-methoxy-N-(2-methoxyethyl)benzamide] are not above 1 nM and 1.6 nM.
As to `COc1cc(C(N)=O)ccc1Nc1nc2ccc(-c3ccc(C(=O)NCc4ccc(F)cc4)cc3)cn2n1` [Example 12.43, 4-[(6-{4-[(4-fluorobenzyl)-carbamoyl]phenyl}[1,2,4]triazolo [1,5-a]pyridin-2-yl)-amino]-3-methoxy-benzamide], the IC50 at Mps-1 kinase [1] and at Mps-1 kinase [2] was not above 1 nM in each case.
Regarding `COc1cc(C(=O)NCCS(C)(=O)=O)ccc1Nc1nc2ccc(-c3ccc(NC(=O)Cc4ccc(F)cc4)cc3)cn2n1` [Example 12.03], the IC50 against Mps-1 kinase [1] and on Mps-1 kinase [2] was not above 1 nM in each case.
For the compound `COc1cc(C(C)(C)O)ccc1Nc1nc2ccc(-c3ccc(NC(=O)Cc4ccc(F)cc4)cc3)cn2n1` [Example 12.17, 2-(4-fluorophenyl)-N-[4-(2-{[4-(2-hydroxypropan-2-yl)-2-methoxyphenyl]amino}-[1,2,4]triazolo[1,5-a]pyridin-6-yl)phenyl]acetamide], the IC50 against Mps-1 kinase [1] and on Mps-1 kinase [2] was not above 1 nM each time.
For `COc1cc([S@@+](C)[O-])c(F)cc1Nc1nc2ccc(-c3ccc(NC(=O)Cc4ccc(F)cc4)cc3)cn2n1` (stereo in doubt) [Example 12.14, N-[4-(2-{[5-fluoro-2-methoxy-4-(methylsulfinyl)-phenyl]amino}[1,2,4]-triazolo[1,5-a]pyridin-6-yl)-phenyl]-2-(4-fluorophenyl)-acetamide], the IC50 at Mps-1 kinase [1] was not above 1 nM; against Mps-1 kinase [2], 8.5 nM.
On to `COc1cc(S(=O)(=O)NC(C)(C)C)ccc1Nc1nc2ccc(-c3ccc(C(=O)NCc4ccc(F)cc4)cc3)cn2n1` [Example 12.52, 4-(2-{[4-(tert-butyl-sulfamoyl)-2-methoxy-phenyl]amino}[1,2,4]-triazolo[1,5-a]pyridin-6-yl)-N-(4-fluorobenzyl)-benzamide], for which the values for the IC50 on Mps-1 kinase [1] and against Mps-1 kinase [2] were not above 1 nM and 14 nM, respectively.
With `COc1cc(C(=O)NCC(F)F)ccc1Nc1nc2ccc(-c3ccc(NC(=O)Cc4ccc(F)cc4)cc3)cn2n1` [Example 12.07, N-(2,2-difluoroethyl)-4-{[6-(4-{[(4-fluorophenyl)-acetyl]amino}phenyl)[1,2,4]triazolo[1,5-a]pyridin-2-yl]amino}-3-methoxy-benzamide], the IC50 against Mps-1 kinase [1] and against Mps-1 kinase [2] was not above 1 nM each time.
For `CCN(Cc1ccc(Nc2nc3ccc(-c4ccc(C(=O)NCc5ccc(F)cc5)cc4)cn3n2)c(OC)c1)C(C)(C)CO` [Example 12.53, 4-{2-[(4-{[ethyl(1-hydroxy-2-methylpropan-2-yl)amino]-methyl}-2-methoxyphenyl)-amino][1,2,4]triazolo[1,5-a]pyridin-6-yl}-N-(4-fluoro-benzyl)benzamide], the IC50 is not above 1 nM against Mps-1 kinase [1] and 6.9 nM against Mps-1 kinase [2].
Consider `CCOc1cc(C(=O)N(C)CC)ccc1Nc1nc2ccc(-c3ccc(C(=O)NCc4ccc(F)cc4)cc3)cn2n1` [Example 12.56, 3-ethoxy-N-ethyl-4-[(6-{4-[(4-fluorobenzyl)carbamoyl]phenyl}[1,2,4]triazolo[1,5-a]pyridin-2-yl)amino]-N-methylbenzamide], for which the concentration for half-maximal inhibition (IC50) at Mps-1 kinase [1] and against Mps-1 kinase [2] was not above 1 nM each time.
Take `Cc1ccc(CNC(=O)c2ccc(-c3ccc4nc(Nc5ccc(S(C)(=O)=O)cc5C)nn4c3)cc2)cc1` [Example 12.77, N-(4-methylbenzyl)-4-(2-{[2-methyl-4-(methylsulfonyl)-phenyl]amino}[1,2,4]triazolo [1,5-a]pyridin-6-yl)-benzamide]: the values for the IC50 on Mps-1 kinase [1] and against Mps-1 kinase [2] were not above 1 nM and 11 nM, respectively.
The matching figures for `O=C(NCc1ccc(F)cc1)c1ccc(-c2ccc3nc(Nc4ccc(F)cc4OC(F)F)nn3c2)cc1` [Example 12.63, 4-(2-{[2-(difluoromethoxy)-4-fluorophenyl]amino}-[1,2,4]triazolo[1,5-a]pyridin-6-yl)-N-(4-fluoro-benzyl)benzamide]: not above 1 nM and 26 nM.
The matching figures for `COc1cc([S@@+](C)[O-])ccc1Nc1nc2ccc(-c3ccc(NC(=O)Cc4ccc(F)cc4)cc3)cn2n1` (stereo in doubt) [Example 12.13, 2-(4-fluorophenyl)-N-[4-(2-{[2-methoxy-4-(methyl-sulfinyl)phenyl]amino}-[1,2,4]triazolo[1,5-a]pyridin-6-yl)phenyl]acetamide]: not above 1 nM and not above 1 nM.
For the compound `CS(=O)(=O)CCNC(=O)c1ccc(Nc2nc3ccc(-c4ccc(NC(=O)Cc5ccc(F)cc5)cc4)cn3n2)c(OCC(F)(F)F)c1` [Example 12.21, 4-{[6-(4-{[(4-fluorophenyl)-acetyl]amino}phenyl)[1,2,4]triazolo[1,5-a]pyridin-2-yl]amino}-N-[2-(methyl-sulfonyl)ethyl]-3-(2,2,2-trifluoroethoxy)benzamide], the IC50 against Mps-1 kinase [1] and against Mps-1 kinase [2] was not above 1 nM in each case.
Take `CCOc1cc(C(=O)NCCF)ccc1Nc1nc2ccc(-c3ccc(C(=O)NCc4ccc(F)cc4)cc3)cn2n1` [Example 12.57, 3-ethoxy-4-[(6-{4-[(4-fluoro-benzyl)carbamoyl]phenyl}-[1,2,4]triazolo[1,5-a]pyridin 2-yl)amino]-N-(2-fluoroethyl)benzamide]: the IC50 at Mps-1 kinase [1] and at Mps-1 kinase [2] was not above 1 nM throughout.
Consider `COc1ccc(Nc2nc3ccc(-c4ccc(NC(=O)Cc5ccc(F)cc5)cc4)cn3n2)c(OC)c1` [Example 12.18, N-(4-{2-[(2,4-dimethoxy-phenyl)amino][1,2,4]-triazolo[1,5-a]pyridin-6-yl}phenyl)-2-(4-fluoro-phenyl)acetamide], for which the IC50 at Mps-1 kinase [1] is not above 1 nM; on Mps-1 kinase [2], 1.5 nM.
